Laboratory results published in patent US6635278B1, “Pharmaceutical formulations” (Gilead Sciences, Inc., priority 1998, dated 2003).

Assays:
[1] = AD solubility in crystallization solvents; type: physicochemical
[2] = Stability of aqueous AD solutions versus pH; type: physicochemical

- AD content the solvent can contain ([1]; methanol or CH2Cl2): more than 50%
- upper limit of solubility of AD ([1]; most crystallization solvents at room temperature): 10-41%
- solubility ([1]; organic solvent or mixture, in di-n-butyl ether): < 300 µg/mL
- pH of maximum stability [2]: 3-5
SMILES: CC(C)(C)C(=O)OCOP(=O)(COCCn1cnc2c(N)ncnc21)OCOC(=O)C(C)(C)C [AD, 9-[2-[[bis[(pivaloyloxy)methyl]phosphono]methoxy]ethyl]adenine]
